In patent US7824853B2, “Complex comprising at least two biospecific elements separated by a nucleic acid linker e.g. for identification of drug delivery candidates combinatorial library of such complexes” (Avaris AB, priority 2002, dated 2010):

System: peripheral blood mononuclear cells, population with the characteristics of monocytes
Assay: Monocyte binding assay (FACS, binding and uptake of fluorescent complexes)
Type: cell-based
Conditions: monocytic population; incubated one hour at +37° C., then trypsinisation; 6-FAM labelled 48-mer oligo
From the text: Oligonucleotides (48-mers) with recognition sites for 2 different peptide-nucleic-acid sequences and with a fluorescent label were designed and manufactured. Each binding site corresponds to 15 nucleotides. The 48-mer oligos contain in the 5′ end the fluorescent label, 6-FAM, followed by three thymidine residues as spacer. There is a single central target site (GGAAGGGCCGAGCGC, Seq. Id. No. 2) surrounded by two identical adjacent target sites (CAATCGGAACGGATC, Seq. Id. No. 1).
Peptide-nucleic-acid-linker3-peptide (=ligand) fusions were generated as described before (Brandén L J, Mohamed A J, Smith C I E. A peptide nucleic acid-nuclear localisation signal fusion that mediates nuclear transport of DNA. Nature Biotechnol 17: 784-787, 1999). […]
Peptide-nucleic-acid-linker3-peptide (=ligand) fusions were hybridised to oligonucleotides in order to generate the novel biomolecular complexes. […] Following the incubation cells were analysed in a fluorescent activated cell sorter (FACS SCAN, Becton Dickinson, Mountain View, Calif.).

Sequence: TAT (FE2): PNA-linker3-HIV TAT peptide (grkkrrqrrrppqc) fusion hybridised to central target site Seq. Id. No. 2 of the 48-mer oligo
- Percentage of fluorescent cells: 0.93%
